Source: patent publication US12702715B2, “Targeted RNA degradation allows precision repurposing of protein-targeted small molecule medicines to RNA” (University of Florida Research Foundation, Incorporated, priority 2020, dated 2026)
“Also recorded” adds a separate entry of the source.

Experiments:
FLT3 = target: T1, FLT3 (Homo sapiens, UniProt P36888); test: Cellular Chem-CLIP/C-Chem-CLIP to study occupancy of an RTK; assay type: cell-based; conditions: 0.01-10 μM pre-treatment
T1 construct: endogenous in cells; host or cells: MDA-MB-231
T1 sequence (P36888 27-993): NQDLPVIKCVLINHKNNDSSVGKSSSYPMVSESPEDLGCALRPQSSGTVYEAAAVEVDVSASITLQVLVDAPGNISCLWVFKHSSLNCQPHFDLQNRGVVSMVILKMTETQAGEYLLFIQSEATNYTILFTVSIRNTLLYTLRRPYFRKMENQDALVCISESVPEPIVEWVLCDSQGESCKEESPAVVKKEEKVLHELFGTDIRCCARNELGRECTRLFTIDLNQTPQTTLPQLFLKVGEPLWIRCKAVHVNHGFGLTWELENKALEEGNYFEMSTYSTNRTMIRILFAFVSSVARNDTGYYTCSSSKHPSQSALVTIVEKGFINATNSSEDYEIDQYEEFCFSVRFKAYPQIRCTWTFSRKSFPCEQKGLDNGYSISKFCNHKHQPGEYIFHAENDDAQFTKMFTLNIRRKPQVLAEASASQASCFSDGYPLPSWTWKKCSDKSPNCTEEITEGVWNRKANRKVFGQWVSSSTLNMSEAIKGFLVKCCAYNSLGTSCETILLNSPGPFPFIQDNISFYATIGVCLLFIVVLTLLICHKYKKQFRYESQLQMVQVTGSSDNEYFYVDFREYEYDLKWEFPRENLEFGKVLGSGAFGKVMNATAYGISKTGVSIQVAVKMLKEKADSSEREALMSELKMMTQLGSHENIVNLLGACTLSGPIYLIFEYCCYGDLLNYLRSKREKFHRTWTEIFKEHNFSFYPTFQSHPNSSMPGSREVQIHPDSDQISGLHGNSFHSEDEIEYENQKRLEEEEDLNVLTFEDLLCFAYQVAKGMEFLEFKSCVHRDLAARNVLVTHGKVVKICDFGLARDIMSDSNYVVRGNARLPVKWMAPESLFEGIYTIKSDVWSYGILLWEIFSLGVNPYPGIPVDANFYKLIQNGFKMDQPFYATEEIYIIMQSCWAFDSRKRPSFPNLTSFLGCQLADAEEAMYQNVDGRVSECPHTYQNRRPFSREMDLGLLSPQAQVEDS
Description: Cellular Chem-CLIP/C-Chem-CLIP to Study Occupancy of an RTK. Compound treatment and isolation of cells was completed as described for cellular occupancy studies of pre-miR-21. Total protein was extracted and concentration determined as described in the “Western Blotting” section. Approximately 1 mg of total protein was used for following pull-down experiments, using a protocol adapted from a previously published method 8. Protein cross-linked to the probe were clicked to disulfide biotin azide as described above except the amount of each reagents was doubled (20 μL/sample). Then, to the mixture was added ice-cold, 4:1 mixture of methanol/chloroform (2.5 mL) followed by 1 mL of ice-cold 1×DPBS. The mixture was centrifuged at 5000×g for 10 min at 4° C. to fractionate a protein interphase between organic and aqueous layers. […] The washed protein mixture was centrifuged at 5000×g for 10 min at 4° C. to pellet the protein. The pellet was dissolved in H2O, and to this solution was added 20 μLL streptavidin beads for 30 min at room temperature. The solution was removed, and the beads were washed once with 0.2% SDS in 1×DPBS, twice with detergent-free 1×DPBS and twice with nanopure water. After these washing steps, protein was cleaved as described above. The supernatant was collected, and protein concentration was determined with Pierce Micro BCA Protein Assay kit. […] Sample preparation was completed as described above for cellular Chem-CLIP studies. Western blotting was performed on total protein (10 μg) before or after pull-down, indicated as “Input” or “Output”, as described in Western Blotting.

[1] = target: T2, RNase L / pre-miR-21 ternary complex (Homo sapiens, UniProt Q05823); test: RNase L immunoprecipitation; assay type: cell-based; conditions: 1 μM, MDA-MB-231
T2 construct: endogenous in cells; host or cells: MDA-MB-231
T2 sequence (Q05823 1-741): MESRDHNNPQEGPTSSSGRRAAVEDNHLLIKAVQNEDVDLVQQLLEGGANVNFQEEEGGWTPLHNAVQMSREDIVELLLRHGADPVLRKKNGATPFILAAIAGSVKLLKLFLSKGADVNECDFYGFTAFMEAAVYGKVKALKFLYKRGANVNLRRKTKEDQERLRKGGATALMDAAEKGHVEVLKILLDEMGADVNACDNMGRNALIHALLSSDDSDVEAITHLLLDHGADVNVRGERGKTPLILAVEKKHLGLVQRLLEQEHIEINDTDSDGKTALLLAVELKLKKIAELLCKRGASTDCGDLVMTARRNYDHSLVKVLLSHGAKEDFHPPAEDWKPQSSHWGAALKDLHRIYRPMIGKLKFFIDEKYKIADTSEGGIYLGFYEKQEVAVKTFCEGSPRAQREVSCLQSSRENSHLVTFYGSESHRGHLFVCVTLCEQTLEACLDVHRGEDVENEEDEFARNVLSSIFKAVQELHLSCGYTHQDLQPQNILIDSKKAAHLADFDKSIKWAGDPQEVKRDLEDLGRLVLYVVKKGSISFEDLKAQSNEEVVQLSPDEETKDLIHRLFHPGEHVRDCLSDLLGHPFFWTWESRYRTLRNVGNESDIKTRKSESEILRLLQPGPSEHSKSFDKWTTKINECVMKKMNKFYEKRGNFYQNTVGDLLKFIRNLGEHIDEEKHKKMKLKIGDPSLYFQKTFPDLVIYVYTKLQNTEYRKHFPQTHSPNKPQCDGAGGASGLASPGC
Description: RNase L Immunoprecipitation. MDA-MB-231 cells were seed in 6-well plates and were treated with vehicle, 4 (1 μM) or 5 (1 μM) when the cells reached ~70% confluency. After 48 h, the cells were harvested and lysed in 100 μL of M-PER buffer containing protease inhibitor and RNaseOUT recombinant Ribonuclease Inhibitor (Invitrogen) on ice for 20 min. The lysate was centrifuged at 13,000×g for 15 min, and the supernatants were incubated with Dynabeads Protein A (Life Technologies) bound to RNase L mouse primary antibody or β-actin mouse primary antibody overnight at 4° C. After incubation, the beads were washed with 1×DPBS containing 0.02% (v/v) Tween-20, and RNA was extracted by using a miRNeasy Mini Kit (Qiagen) per the manufacturer's instructions. RT-qPCR was performed as described above. Relative RNA levels were determined by ΔΔCt method by normalizing to 18S rRNA levels. Normalized fold change was calculated as previously described^6.

pre-miR-21 = test: RT-qPCR of pre-miR-21 levels in MDA-MB-231 cells; assay type: cell-based, human; conditions: MDA-MB-231, RT-qPCR
Description: Cell Culture. Cells were cultured at 37° C. and 5% CO2. MDA-MB-231 cells (HTB-26, ATCC) were cultured in RMPI 1640 medium with L-glutamine & 25 mM HEPES supplemented with 1× Antibiotic/Antimycotic solution (Corning) and 10% FBS. MCF-10A cells (CRL-10317, ATCC) were cultured in 1×DMEM/F12 50/50 with L-glutamine & 15 mM HEPES (Corning) supplemented with 20% FBS, 1× Antibiotic/Antimycotic solution, 20 ng/mL human epidermal growth factor (Pepro Tech, Inc.), 10 μg/mL insulin (Sigma-Aldrich), and […] hydrocortisone (Pfaltz & Bauer). For compound treatment, compound stocks either in DMSO or water were diluted in growth medium and added to cells for the indicated time. Plasmid DNA to overexpress pre-miR-21 in pcDNA 3.1 (Addgene 21114) or a plasmid DNA encoding the pre-miR-21 mutant (custom purchased from GenScript USA, Inc.) was transfected with jetPRIME per the manufacturer's protocol. After transfection, the medium was replaced with growth medium containing the compound of interest, prepared as described above. The RNase L-targeting siRNA or a control siRNA was transfected with Lipofectamine RNAiMAX reagent (Invitrogen) per the manufacturer's protocol.
RNA Isolation and Quantitative Real-Time PCR (RT-qPCR). After treatment, total RNA was extracted and purified by using the Zymo Quick-RNA mini prep kit per the manufacturer's protocol. Reverse Transcription (RT) for mature miRNAs as well as pri- and pre-miR-21 was completed on 200 ng of RNA by using a miScript 11 RT kit (QIAGEN) according to manufacturer's protocol. RT of mRNAs was performed by using QScript kit (Quanta Bio). An Applied Biosystems QS5 384-well PCR system was used to complete qPCR experiments using Power Sybr Green Mater Mix (Life Technologies) as described previously^6.

[2] = test system: 3×2 RNA internal loop library (3×2 ILL); test: AbsorbArray 2DCS selection with Inforna fitness analysis; assay type: binding, human; conditions: Zobs>8
Description: Construction of AbsorbArray Small Molecule Microarrays. Microarrays were constructed as previously reported^4. Briefly, a 1% agarose solution was poured onto a glass slide and dried on the benchtop. A 200 nL aliquot of 68 hit compounds (10 mM in DMSO) was pinned onto the array from a 384-well plate using Biomek NXP Laboratory Automation Workstation. Slides were then dried overnight to obtain a thin, invisible agarose layer. Slides were washed three times with 1×PBST^5 and then three times with nanopure water. Slides were dried completely in the air before RNA selection, completed by Two-Dimensional Combinatorial Screening (2DCS).
RNA Selection and Screening by 2DCS. The 3×2 RNA ILL was 5′-end ^32P-labeled as previously described^7 and 2DCS selections were completed as previously described 4. All oligonucleotides were folded as described in the “Solution-based Dye Displacement Assay” section. Small molecule microarrays were pre-equilibrated by 3 mL 1× AB2 for 5 min. After removing the pre-equilibration buffer, 5′-end labeled folded 3×2 RNA ILL (~50,000 cpm) was added in 3 mL 1× AB2 containing 1 mM MgCl2 in the presence of competitor oligonucleotides (100 μM each). The oligonucleotide solution was evenly distributed across the microarray surface with a custom-cut piece of Parafilnm. After incubating for 30 min at room temperature, the Parafilm was removed, and the slide was washed gently by submersion in 1× AB2 for 30 s. This washing step was repeated three additional times, and the array was dried on the benchtop for 1 h. […] To harvest and collect the bound RNAs from the ILL, 1 μL of nanopure water was added to each spot. After 30 s, the water drop was absorbed into agarose gel, hydrating it such that it could be excised with a toothpick. The RNAs were eluted from the agarose by simple incubation with water, and then treated with RNase-free DNase I. A unique barcode for each small molecule was installed by reverse transcription (RT). Barcoded RNAs were amplified by PCR, purified, and identified by next-generation sequencing (NGS) using an Ion Proton deep sequencer using PI chips (60-80 million reads) as previously described^2.

Row | Compound | competition of FLT3 enrichment by probe 4 (FLT3) | enrichment of pre-miR-21 in RNase L immunoprecipitation [1] | pre-miR-21 levels (pre-miR-21) | number of binding RNA motifs [2]
1 | CCCNC(=O)NCCN1CCN(c2ccc3[nH]c(-c4c(N)c5c(F)cccc5[nH]c4=O)nc3c2)CC1 [Compound 8] | competed off | – | – | –
2 | CCOC(=O)C1=C(Nc2ccccc2)S/C(=C\c2ccc(OCCOCCOCCOCCNC(C)=O)c(O)c2)C1=O [Compound 6] | – | not | had no effect | –
3 | COc1ccc(NC(=O)[C@H](CCCCN)NC(=O)c2cc(NC(=O)[C@H](CCCCN)NC(=O)c3cc(NC(=O)[C@H](CCCCN)NC(=O)c4cc(NC(=O)[C@@H](N)CCCCN)ccc4OC)ccc3OC)ccc2OC)cc1C(N)=O [Delparantag] | – | – | – | 284
4 | CN1c2ccccc2Sc2ccc(CC(=O)O)cc21 [Metiazinic Acid] | – | – | – | 274
5 | CCOC(=O)C1=C(Nc2ccccc2)S/C(=C\c2ccc(O)c(OCCOCCOCCOCCNC(=O)NCCN3CCN(c4ccc5[nH]c(-c6c(N)c7c(F)cccc7[nH]c6=O)nc5c4)CC3)c2)C1=O [Compound 7] | competed off; also recorded: between that observed for 1 and 2 | not | increasing pre-miR-21 levels | –
6 | NCCCNc1ccc2c3c(nn2CCNCCO)-c2c(O)ccc(O)c2C(=O)c13 [Piroxantrone] | – | – | – | 278
